Laboratory results reported in patent US20110130704A1, “COMBINATION OF A LIGHT RAY AND A LIPASE-BIOCONVERTIBLE COMPOUND FOR IMPROVING SKIN AND/OR HAIR APPEARANCE” (L'OREAL, priority 2008, published 2011).
Each block holds one molecule with its values, some of them ahead of it.

Legend:
[1] = test system: lipase (reference L3126 from Sigma); experiment: Hydrolysis of ascorbyl palmitate by lipase with or without blue light radiation (palmitic acid released); assay type: biochemical; details: for Test - Control % of variation versus control: light 400-510 nm vs no light; for Test (in ppm palmitic acid released in reaction medium) / Control (in ppm palmitic acid released in reaction medium): lipase + ascorbyl palmitate; for Test (in ppm palmitic acid released in reaction medium): light 400-510 nm; for Control (in ppm palmitic acid released in reaction medium): no light exposure
Procedure: The lipase (reference L3126 from Sigma) is exposed with stirring to a light radiation with a predominant wavelength of 400-510 nm (FIG. 2: spectrum of blue light used, intensity 0.5 mW/cm^2) in the presence of ethyl lactate (from Sigma or Fluka) according to the set-up described in FIG. 1. The same protocol as that described in Example 1 is carried out, with the replacement of ethyl lactate by ascorbyl palmitate. In the presence of lipase, the ascorbyl palmitate hydrolyses to give palmitic acid and ascorbic acid. The lipase is exposed with stirring to the said radiation with a predominant wavelength ranging from 400 to 510 nm (blue spectrum) in the presence of ascorbyl palmitate. An increase in the hydrolysis proportional to the time of exposure of the lipase to the said radiation is found, as presented in the following table: […]

[2] = test system: lipase (reference L3126 from Sigma); experiment: Hydrolysis of ethyl lactate by lipase with or without blue light radiation (lactic acid formed is determined); assay type: biochemical; details: for Test - Control % of variation versus control: light 400-510 nm vs no light; for Test (ppm lactic acid in reaction medium) / Control (ppm lactic acid in reaction medium): lipase + ethyl lactate; for Test (ppm lactic acid in reaction medium): light 400-510 nm; for Control (ppm lactic acid in reaction medium): no light exposure
Text: In the presence of lipase, ethyl lactate is hydrolysed to give L-lactate (which reacts with water to give lactic acid) and ethanol. The lactic acid thus formed is quantitatively determined.
The lipase (reference L3126 from Sigma) is exposed with stirring to a light radiation with a predominant wavelength of 400-510 nm (FIG. 2: spectrum of blue light used, intensity 0.5 mW/cm^2) in the presence of ethyl lactate (from Sigma or Fluka) according to the set-up described in FIG. 1.
The control corresponds to bringing together the lipase and the ethyl lactate under the same conditions, without exposure to the said light radiation. An increase in the hydrolysis of the ethyl lactate, with respect to the control, is found.

- Test - Control % of variation versus control ([1]; reaction time 20 min): 1.71%
- Test - Control % of variation versus control ([1]; reaction time 40 min): 2.95%
- Test - Control % of variation versus control ([1]; reaction time 60 min): 9.92%
- Test - Control % of variation versus control ([1]; reaction time 90 min): 11.72%
- Test (in ppm palmitic acid released in reaction medium) ([1]; reaction time 20 min): 63.96 ppm
- Test (in ppm palmitic acid released in reaction medium) ([1]; reaction time 40 min): 77.15 ppm
- Test (in ppm palmitic acid released in reaction medium) ([1]; reaction time 60 min): 98.99 ppm
- Test (in ppm palmitic acid released in reaction medium) ([1]; reaction time 90 min): 119.51 ppm
- Control (in ppm palmitic acid released in reaction medium) ([1]; reaction time 20 min): 62.89 ppm
- Control (in ppm palmitic acid released in reaction medium) ([1]; reaction time 40 min): 74.87 ppm
- Control (in ppm palmitic acid released in reaction medium) ([1]; reaction time 60 min): 89.16 ppm
- Control (in ppm palmitic acid released in reaction medium) ([1]; reaction time 90 min): 105.5 ppm
SMILES: CCCCCCCCCCCCCCCC(=O)OC[C@H](O)[C@H]1OC(=O)C(O)=C1O [ascorbyl palmitate]

- Test - Control % of variation versus control ([2]; reaction time 20 min): 5.16%
- Test - Control % of variation versus control ([2]; reaction time 40 min): 9.08%
- Test - Control % of variation versus control ([2]; reaction time 90 min): 17.94%
- Test (ppm lactic acid in reaction medium) ([2]; 0.5 mW/cm^2, reaction time 20 min): 0.48 ppm
- Test (ppm lactic acid in reaction medium) ([2]; 0.5 mW/cm^2, reaction time 40 min): 0.69 ppm
- Test (ppm lactic acid in reaction medium) ([2]; 0.5 mW/cm^2, reaction time 90 min): 0.84 ppm
- Control (ppm lactic acid in reaction medium) ([2]; reaction time 20 min): 0.45 ppm
- Control (ppm lactic acid in reaction medium) ([2]; reaction time 40 min): 0.62 ppm
- Control (ppm lactic acid in reaction medium) ([2]; reaction time 90 min): 0.69 ppm
SMILES: CCOC(=O)C(C)O (stereo not drawn) [ethyl lactate]
